Reference: PubChem BioAssay (NCI)
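Following 48 hours of exposure in 96-well plates, responses at five concentrations were used to interpolate endpoints linearly. Abbreviation: GI50, concentration required for 50% inhibition of growth. The concentration for full growth arrest is given as TGI.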

Experiments:
Assay in all cases: NCI anticancer screen, dose series, 48 h
MDA-N = test system: MDA-N
SNB-78 CNS = test system: SNB-78 CNS
LXFL 529 NSCLC = test system: LXFL 529 NSCLC
KM20L2 colon = test system: KM20L2 colon
M19-MEL melanoma = test system: M19-MEL melanoma
XF 498 CNS = test system: XF 498 CNS
HOP-18 NSCLC = test system: HOP-18 NSCLC
DMS 114 small cell lung = test system: DMS 114 small cell lung
RXF-631 renal = test system: RXF-631 renal

Row | Structure (SMILES) | TGI (MDA-N) | TGI (SNB-78 CNS) | TGI (LXFL 529 NSCLC) | TGI (KM20L2 colon) | TGI (M19-MEL melanoma) | TGI (XF 498 CNS) | TGI (HOP-18 NSCLC) | TGI (DMS 114 small cell lung) | TGI (RXF-631 renal) | GI50 (SNB-78 CNS) | GI50 (LXFL 529 NSCLC) | GI50 (M19-MEL melanoma) | GI50 (DMS 114 small cell lung) | GI50 (KM20L2 colon) | GI50 (HOP-18 NSCLC) | GI50 (MDA-N)
1 | C=C(C)C(=O)OC1CC2(C)OC2CC(OC(C)=O)/C(C)=C/C2OC(=O)C(=C)C21 (stereo unspecified) | 8.59 µM |  |  |  |  |  |  |  |  |  |  |  |  |  |  | 
2 | COc1ccccc1/C=C1\CCC(CNc2ccc(Cl)cc2)C1=O (stereo unspecified) |  | 54.5 µM | 13.7 µM | 4.87 µM | 33.1 µM | 42.7 µM | 30.2 µM | 22.5 µM |  |  |  |  |  |  |  | 
3 | CS(=O)(=O)OCCN1CCN(C(=O)c2cccc3c(Nc4ccc(S(N)(=O)=O)cc4)c4ccccc4nc23)CC1 |  | > 100 µM | > 100 µM | > 100 µM | > 100 µM | > 100 µM | > 100 µM | > 57.6 µM | > 100 µM |  |  |  |  |  |  | 
4 | NC1C2C(CC(=O)O)OCC=C3CN4CCC1(C(=O)C(=O)O)C4CC32 (stereo unspecified) | > 100 µM |  |  |  |  |  |  |  |  |  |  |  |  |  |  | 
5 | CS(=O)(=O)N(CCC#N)c1ccc(/C=N/NC(=O)CC(=O)Nc2cccc(Cl)c2)cc1 |  | > 100 µM | > 100 µM | > 100 µM | > 100 µM |  | > 100 µM | > 100 µM |  |  |  |  |  |  |  | 
6 | N#CCCN(CCC#N)c1ccc(/C=C2\N=C(COc3ccc(Cl)cc3Cl)OC2=O)cc1 |  | > 100 µM | > 100 µM | > 100 µM | > 100 µM | > 100 µM |  | > 100 µM | > 100 µM |  |  |  |  |  |  | 
7 | COc1cc(N=Nc2ccccc2)cc(/C=N\[N-]C(N)=S)c1[O-].COc1cc(N=Nc2ccccc2)cc(/C=N\[N-]C(N)=S)c1[O-].[Fe+4] |  | > 100 µM | > 100 µM |  | 75.9 µM |  |  | 83.4 µM |  | > 100 µM | 13.7 µM | 16.8 µM | 11.8 µM |  |  | 
8 | CNS(=O)(=O)NN(C)S(=O)(=O)c1ccc(Cl)cc1 |  |  | > 100 µM | > 100 µM | > 100 µM | > 100 µM |  | > 100 µM | > 100 µM |  |  |  |  |  |  | 
9 | OCCN(CCO)c1cccc(N(CCO)CCO)c1 |  | > 100 µM | > 100 µM | > 100 µM | > 100 µM | > 100 µM |  | > 100 µM | > 100 µM |  |  |  |  |  |  | 
10 | Cn1ccnc1C(c1nccn1C)C(C)(C)[N+](=O)[O-] |  | > 100 µM |  |  | > 100 µM | > 100 µM |  | > 100 µM | > 100 µM |  |  |  |  |  |  | 
11 | O=C1CCC2CCc3cccc4oc1c2c34 (stereo unspecified) |  | > 100 µM | > 100 µM | > 100 µM | > 100 µM | > 100 µM | > 100 µM | > 100 µM |  |  |  |  |  |  |  | 
12 | O=C1O[C@H](C(Cl)(Cl)Cl)N2CCCC12 (stereo partly specified) |  |  | > 100 µM | > 100 µM | > 100 µM | > 100 µM | > 100 µM | > 100 µM |  |  |  |  |  |  |  | 
13 | CC(C)COC(=O)N1N=NC2C3OC(CC3=O)C21 (stereo unspecified) |  |  | > 100 µM | > 100 µM | > 100 µM | > 100 µM | > 100 µM | > 100 µM |  |  |  |  |  |  |  | 
14 | Cn1cc(NC(=O)c2cc(NC(=O)Nc3cc(C(=O)Nc4cc(C(=O)NCCC(=N)N)n(C)c4)n(C)c3)cn2C)cc1C(=O)NCCC(=N)N |  | 82 µM | > 100 µM | > 100 µM | 83.1 µM | 45.8 µM | > 100 µM | > 100 µM | 56.9 µM |  |  |  |  |  |  | 
15 | O=C(O)CNS(=O)(=O)c1ccc(NC(=O)c2ccc(F)cc2)cc1 |  |  | > 100 µM | > 100 µM | > 100 µM | > 100 µM | > 100 µM |  | > 100 µM |  |  |  |  |  |  | 
16 | CC(=O)O[C@H]1CC[C@@]2(C)C(CC[C@]3(C)C2CC[C@]2(C)Oc4c(C)cc(O)cc4C[C@@H]23)C1(C)C (stereo partly specified) |  | 21.8 µM | 13.6 µM | 19.2 µM | 25.8 µM |  | 26.4 µM | 26.7 µM | 19.4 µM |  |  |  |  |  |  | 
17 | Oc1ccc2occ3c2c1CCC3 |  | > 100 µM | > 100 µM | > 100 µM | > 100 µM | > 100 µM | > 100 µM | > 100 µM | > 100 µM |  |  |  |  |  |  | 

Row | Structure (SMILES) | TGI (MDA-N) | TGI (SNB-78 CNS) | TGI (LXFL 529 NSCLC) | TGI (KM20L2 colon) | TGI (M19-MEL melanoma) | TGI (XF 498 CNS) | TGI (HOP-18 NSCLC) | TGI (DMS 114 small cell lung) | TGI (RXF-631 renal) | GI50 (SNB-78 CNS) | GI50 (LXFL 529 NSCLC) | GI50 (M19-MEL melanoma) | GI50 (DMS 114 small cell lung) | GI50 (KM20L2 colon) | GI50 (HOP-18 NSCLC) | GI50 (MDA-N)
18 | O=c1[nH]c(=O)n(C2CC(O)C(CO)O2)cc1C(OCC(F)(F)F)OCC(F)(F)F (stereo unspecified) |  | > 100 µM | > 100 µM | > 100 µM | > 100 µM | > 100 µM |  | > 100 µM | > 100 µM |  |  |  |  |  |  | 
19 | CCON=C1C(C)(C)C(C)(C)C(C)(C)C1(C)C | > 100 µM |  |  |  |  |  |  |  |  |  |  |  |  |  |  | 
20 | O=S(=O)([O-])[O-].[Cl-].[NH2-].[NH2-].[NH2-].[NH2-].[Ru+3].c1ccc(-c2cccnc2)cc1 |  | > 100 µM | > 100 µM | > 100 µM |  |  |  |  |  | > 100 µM | > 100 µM |  |  | > 100 µM |  | 
21 | CCN(CC)CC(=O)/C=C/c1ccc(C)cc1 |  | > 100 µM | 33 µM | 49.4 µM | 32.7 µM | 92.4 µM | 59.6 µM | 37.9 µM |  |  |  |  |  |  |  | 
22 | CCOCC(=O)N[C@H]1CCc2cc(OC)c(OC)c(OC)c2-c2ccc(SC)c(=O)cc21 | < 0.01 µM | > 100 µM | > 100 µM | < 0.01 µM | > 100 µM | 4.49 µM | > 100 µM | < 0.01 µM | > 46.4 µM |  |  |  |  |  |  | 
23 | CN(C)c1ccc(/C=C/C(=O)C(C)(C)C)cc1Br |  | > 100 µM | 92.4 µM | 79.5 µM | 50.9 µM | 30.3 µM | > 100 µM | 40.1 µM |  |  |  |  |  |  |  | 
24 | C=CCC12CCC(=O)C=C1CCC1(C2)OCCO1 (stereo unspecified) |  | > 100 µM | > 100 µM | > 100 µM | > 100 µM |  | > 100 µM | > 100 µM | > 100 µM |  |  |  |  |  |  | 
25 | C[N+](C)([O-])CCCNc1c2ccccc2nc2cccc([N+](=O)[O-])c12 | 0.524 µM |  |  |  |  |  |  |  |  |  |  |  |  |  |  | 
26 | Cc1cc2c(cc1C)[n+](=O)c(C(=O)/C=C/c1ccc(Cl)cc1)c(C)n2[O-] |  | > 100 µM | > 100 µM | > 100 µM | > 100 µM | 68.6 µM | > 100 µM | 94.4 µM |  |  |  |  |  |  |  | 
27 | O=C(CC1(O)C(=O)Nc2ccc(Br)cc21)c1ccc(Cl)cc1 (stereo unspecified) |  | > 100 µM | > 100 µM | > 100 µM |  |  | > 100 µM |  | > 100 µM |  |  |  |  |  |  | 
28 | CC1CCC2(NC1)OC1CC3[C@@H]4CC=C5C=CCC[C@]5(C)C4CC[C@]3(C)C1C2C (stereo partly specified) |  | > 100 µM |  | 33.8 µM | > 100 µM | 33 µM | > 100 µM | 46.8 µM |  |  |  |  |  |  |  | 
29 | NC1CCCCC1N.O=C([O-])P(=O)([O-])[O-].[Na+].[Pt+4] (stereo unspecified) |  | > 100 µM | > 100 µM | > 100 µM | > 100 µM |  | > 100 µM |  |  | > 100 µM | > 100 µM | 85.1 µM |  | > 100 µM | > 100 µM | 
30 | O=c1[nH]c(-c2ccccc2)nc2ccc(Cl)cc12 |  | > 100 µM | > 100 µM | > 100 µM | > 100 µM |  |  | > 100 µM |  |  |  |  |  |  |  | 
31 | CCNc1c(C(=O)N(CC)CC)c(=O)[nH]c2ncccc12 |  | > 100 µM | > 100 µM | > 100 µM | > 100 µM |  |  | > 100 µM |  |  |  |  |  |  |  | 
32 | Cc1ccc(C(=O)O/N=C2/CCCCC2CN(C)C)cc1 (stereo unspecified) |  | > 100 µM | > 100 µM | > 100 µM | > 100 µM |  | > 100 µM | > 100 µM | > 100 µM |  |  |  |  |  |  | 
33 | CC(=N\O)/C(C)=N/O.CC(=N\O)/C(C)=N/O.CC(=N\O)/C(C)=N/O.CC(=N\O)/C(C)=N/O.[Cu].[Cu] | 43.5 µM |  |  |  |  |  |  |  |  |  |  |  |  |  |  | 20.5 µM
